The source of these data is ChEMBL document CHEMBL1133689, “7-Chloro-4,5-dihydro-8-(1,2,4-triazol-4-yl)-4-oxo-1,2,4-triazolo[1, 5-a]quinoxaline-2-carboxylates as novel highly selective AMPA receptor antagonists” (J Med Chem, 2000).

Some results are limits rather than exact numbers.

Test [1] can be described thus: Compound was evaluated for inhibition of binding of [3H]glycine to specific binding at glycine receptor in rat cortical membrane at 100 uM. In kind it is cell membranes.
For test [2], the species on record is Mus musculus. Briefly: Ability to inhibit depolarizations induced by AMPA in mouse cortical wedge preparations. In kind it is functional, organism-based.
Test [3] in a line: Compound was evaluated for inhibition of binding of [3H]glycine to specific binding at glycine receptor in rat cortical membrane. It counts as cell membranes.
The target in test [4] is Glutamate receptor ionotropic, kainate. Briefly: Compound was evaluated for inhibition of binding of [3H]KA to specific binding at Ka receptor in rat cortical membrane. It counts as cell membranes.
Test [5] deals with Glutamate receptor ionotropic, AMPA (Rattus norvegicus, UniProt P19490+P19491+P19492+P19493). Briefly: Compound was evaluated for inhibition of binding of [3H]AMPA to specific binding at Ionotropic glutamate receptor AMPA in rat cortical membrane. In kind it is cell membranes.
Test [6] is filed under the species Mus musculus. Nature of the test: Ability to inhibit depolarizations induced by NMDA in mouse cortical wedge preparations. In kind it is functional, organism-based.
Test [7] addresses Glutamate receptor ionotropic, kainate (Rattus norvegicus) (UniProt P22756+Q01812+P42260+P42264+Q63273). Nature of the test: Compound was evaluated for inhibition of binding of [3H]KA to specific binding at Ka receptor in rat cortical membrane at 100 uM. It counts as cell membranes.

Usually inhibition stands for the relative decrease from the control value, in per cent. A lower inhibition goes with little suppression. Usually IC50 stands for the midpoint of a concentration-inhibition curve. Lower therefore signals higher potency. For orientation: Ki means a dissociation constant, usually derived from enzyme kinetics or from competition with a known ligand. A higher Ki goes with lower affinity.

In turn, `NS(=O)(=O)c1cccc2c1c([N+](=O)[O-])cc1nc(O)c(O)nc12` [NBQX] came in with an inhibition in test [1] of 3%. The compound further displayed an IC50 in test [2] of 0.2 µM.

In the case of `O=C(O)c1nc2c(O)nc3cc(Cl)c(-n4cnnc4)cc3n2n1` [TQX-173], the Ki came to 33.5 µM in test [3] and 0.14 µM in test [5]. For the same compound, the results for the IC50 in test [4], in test [2] and in test [6] were 11.6 µM, 2.3 µM and 46 µM, respectively.

On to `O=C(O)c1nc2c(O)nc3cc(Cl)c(-n4ccnc4)cc3n2n1`, for which the inhibition in test [1] turned out to be 45%.

In the case of `CCOC(=O)c1nc2c(O)nc3cc(Cl)c(-n4ccnc4)cc3n2n1`, the inhibition in test [1] amounted to 39%; in test [7], 24%. This compound returned a Ki in test [5] of 2.3 µM. In addition, the 50% inhibitory concentration (IC50) in test [2] is 22 µM; in test [6], more than 100 µM.

Consider `CCOC(=O)c1nc2c(O)nc3cc(Cl)c(-n4cnnc4)cc3n2n1`, for which the inhibition in test [1] came out at 15%; in test [7] it was 42%. In test [5], this compound showed a Ki of 0.7 µM. In addition, the IC50 worked out at 15 µM in test [2] and 100 µM in test [6].

With `O=C(O)c1cc(O)c2c(Cl)cc(Cl)cc2n1`, the Ki in test [3] came to 0.09 µM. Besides, in test [7], the inhibition was 8%. Moreover, the IC50 in test [2] is 52 µM; in test [6], 4.7 µM.

The compound `O=C(O)c1nc2c(O)nc3cc(Cl)c([N+](=O)[O-])cc3n2n1` yielded a Ki in test [3] of 2.2 µM. The inhibition in test [7] was determined as 41%. Further, the half-maximal inhibitory concentration (IC50) in test [2] and in test [6] was 75 µM throughout.

`O=C(O)c1nc2c(=O)[nH]c3cc(Cl)c(-n4ccnc4)cc3n2n1` showed a 50% inhibitory concentration (IC50) in test [4] of 16.8 µM. For the same compound, affinity in test [5] was put at a Ki of 0.98 µM.
